Reference: patent publication US6506555B1, “Use of HIV protease inhibiting compounds” (Institut National de la Sante et de la Recherche Medicale …, priority 1998, dated 2003)

Key:
cytotoxic T lymphocytes = format: in vivo, C57BL/6 mice; details: splenocytes eight days after i.v. LCMV-WE; EL4 cells sensitized with GP33-41 or NP peptide
[1] = Appearance of type 1 diabetes in NOD mice; format: in vivo; details: ritonavir versus diluent
Experimental: FIG. 5 represents the percentage of nondiabetic NOD mice as a function of time, in the case of a treatment with ritonavir compared with administration of a diluent.
(§1) Ritonavir (0.6 mg per 10 g of body weight per day) or a placebo (phosphate buffer PBS) was administered by the intraperitoneal route to NOD mice. The pancreatic islets were removed and cultured for 24 hours in the presence or in the absence of 2.5 μg/ml of ritonavir. The cells were then cocultured with MHC-1-restricted hybridomas (FT6.9 and FT7.9 for 24 hours). The quantity of IL-2 was assayed in the supernatant.

Hybridoma (MHC-I) = assay: IL-2 release by hybridoma FT6.9 cocultured with NOD pancreatic islets; format: cell-based, NOD mice
Experimental: as §1, with “supernatant. The following tables present the quantities of IL-2 measured by a test of proliferation (cpm×10^−3).” for “supernatant.”

Hybridoma ETG.9 (MHC-I) = assay: as above; format: cell-based, NOD mice
Experimental: as §1, with “supernatant. The following tables present the quantities of IL-2 measured by a test of proliferation (cpm×10^−3).” for “supernatant.”

hepatitis C virus = assay: Clinical case: patient doubly infected with HIV and HCV treated with ritonavir; format: in vivo, human
Source text: A patient who is a drug addict is monitored for a double infection with HIV and HCV, discovered in 1986 but undoubtedly prior to this date. The progression of the HIV infection is slow, with a viremia established at around 4 Log HIV RNA copies/ml. The level of CD4 T lymphocytes dropped with a first opportunistic lung infection. […] An HIV protease inhibitor, ritonavir, was introduced into the therapy of the patient and followed since then. The HIV viremia became undetectable during the two months which followed the beginning of the treatment before returning to the previous level from the fourth month. The level of CD4 T lymphocytes increased during this period and continued to increase even after the reappearance of the HIV viremia. By contrast, the HCV viremia became negative at the 7th month after the introduction of ritonavir (FIG. 7), and has remained so two years later.

class I molecules = assay: Maturation and surface expression of class I molecules; format: cell-based
[2] = target: T1, 20S proteasomes isolated from murine B8 fibroblasts (Mus musculus, UniProt O55234+P70195+Q60692); assay: Hydrolysis of fluorogenic substrates by isolated 20S proteasomes; format: biochemical
T1 construct: 20S proteasomes isolated from murine B8 fibroblasts; endogenous in cells; host or cells: murine B8 fibroblasts; 20S proteasome purified from the cells
Experimental: FIGS. 4B, 4C and 4D show the hydrolysis of the fluorogenic substrate (100 μM Suc-LLVY-MCA, 100 μM (Z)-GGL-MCA and 400 μM Bz-VGR-MCA) of the 20S proteasomes isolated from murine B8 fibroblasts, as a function of variable concentrations of ritonavir and of LLnL (N-acetyl-L-leucinyl-L-leucinal-L-norleucinal, known inhibitor of the proteasome). The results are reported for one hour of digestion with the 20S proteasome (500 ng) in a final volume of 100 μl. The values were located in a linear detection domain and are the mean values of triplicates with standard errors of less than 3%.
The hydrolysis of Suc-LLVY-MCA by the 20S murine proteasomes was tested according to the method described in Example 4.2. under identical conditions except for the fact that a different batch of purified proteasomes was used. The hydrolysis of Suc-LLVY-MCA was measured in the presence of increasing concentrations of ritonavir, nelfinavir (Roche), saquinavir (mesylate) and indinavir (active ingredient of Crixivan® marketed by Merck and Sharp and Dohme). The HIV protease inhibitors were dissolved beforehand in ethanol, methanol, DMSO and water respectively, for use in vitro (FIG. 4E).

CD8+ T lymphocytes = assay: Proliferation of the CD8+ T lymphocytes in vivo (FACS of splenocytes); design: species or system mice; details: 200 pfu LCMV-WE i.v., anti-CD8 FACS
[3] = test system: antibodies specific for the LCMV nucleoprotein and glycoprotein; assay: Antibody response to LCMV nucleoprotein and glycoprotein (ELISA); format: in vivo, mice; details: ELISA after four and eight weeks
Experimental: The antibodies specific for the LCMV nucleoprotein and for the LCMV glycoprotein were evaluated after four and eight weeks by an ELISA test as described in O. Planz, P. Seiler, H. Hengartner and R. M. Zinkernagel, Nature, 382, 629 […].

[4] = test system: M113 cells presenting the MART-1 antigen; assay: Proliferation of M77-84 T lymphocytes stimulated by treated M113 cells
LCMV = format: in vivo, mice; details: day D8; 200 pfu LCMV i.v.
[5] = in vivo PBS, in vitro ritonavir 2.5 μg/ml
[6] = in vivo ritonavir, in vitro PBS
[7] = in vivo ritonavir, in vitro ritonavir
[8] = 100 μM substrate, one hour digestion, 500 ng 20S proteasome

With CC(C)c1nc(CN(C)C(=O)N[C@H](C(=O)N[C@@H](Cc2ccccc2)C[C@H](O)[C@H](Cc2ccccc2)NC(=O)OCc2cncs2)C(C)C)cs1 [ritonavir] the “lysis of the target cells (direct lysis ex vivo after systemic infection)” value (cytotoxic T lymphocytes) was “reduced”, the “appearance of type 1 diabetes” value [1] was “delays” and the “percentage in brackets (reduction of IL-2 versus PBS/PBS)” value (Hybridoma (MHC-I); [5]) was 37%. For the same compound, the “percentage in brackets (reduction of IL-2 versus PBS/PBS)” value (Hybridoma (MHC-I); [6]) was 47%, the “percentage in brackets (reduction of IL-2 versus PBS/PBS)” value (Hybridoma (MHC-I); [7]) was 31% and the “recognition ex vivo of Langerhan's cells by cytotoxic T clones” value (Hybridoma ETG.9 (MHC-I); cells isolated from NOD mice treated with ritonavir, statement covers both hybridomas) was “no longer recognized”. The “quantity of IL-2 measured by a test of proliferation” value (shortened to “quantity of IL-2 measured”) (Hybridoma ETG.9 (MHC-I); [5]) was 40 cpm×10^−3, the “quantity of IL-2 measured” value (Hybridoma ETG.9 (MHC-I); [6]) was 34 cpm×10^−3 and the “quantity of IL-2 measured” value (Hybridoma ETG.9 (MHC-I); [7]) was 44 cpm×10^−3. The HCV viremia (hepatitis C virus; at the 7th month after introduction of ritonavir, remained so two years later) was “negative”, the HIV viremia (hepatitis C virus; during the two months after beginning of treatment, returned to previous level from the fourth month) was “undetectable” and the “level of CD4 T lymphocytes” value (hepatitis C virus; one patient, during treatment) was “increased”. The “expression at the surface of the class I molecules” value (class I molecules) was “not significantly blocked”, the “maturation of the class I molecules in the endoplasmic reticulum (resistance to endoglycosidase-H)” value (class I molecules) was “not significantly blocked” and the “hydrolysis of the fluorogenic substrate Suc-LLVY-MCA” value [2, 8] was “potent inhibitor”. The “hydrolysis of the substrate (Z)-GGL-MCA” value [2, 8] was “hardly affected”, the “cleavage of the substrate Bz-VGR-MCA ("trypsin" type activity)” value ([2]; 400 μM substrate, one hour digestion, 500 ng 20S proteasome) was “substantially increased” and the “"chimotrypsin-like" activity (hydrolysis of Suc-LLVY-MCA), comparison of four HIV-1 protease inhibitors” value ([2]; different batch of purified proteasomes, increasing concentrations) was “inhibits”. The “"chymotrypsin-like" activity of the proteasome” value ([2]; summary statement) was “inhibited”, the “"trypsin" activity of the proteasome” value ([2]; summary statement) was “increased” and the “proliferation of the CD8+ T lymphocytes in response to the LCMV virus” value (CD8+ T lymphocytes) was “Inhibition”. The “capacity for synthesizing anti-virus antibodies” value [3] was “does not reduce”, the “presentation of MART-1 antigen: proliferation of M77-84 T lymphocytes” value ([4]; M113 cells cultured 24 hours with 0.1-5 μg/ml, proliferation after 48 hours) was “inhibition” and the inhibition of proliferation ([4]; antigen presenting cells cultured in sera of HIV-negative volunteers obtained 3 hours after a single oral dose of 500 mg) was “Up to 70%”. For the same compound, the “viral clearance (titre of viruses in the spleen)” value (LCMV) was “decrease in the viral clearance”.
